Laboratory results: PubChem BioAssay AID602251 (NMMLSC, 2012)
Active and inactive are the calls of the source.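 The calls were made as follows: active = fitted concentration giving half of the maximal binding block below 66 µM; inactive = the rest.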

Target: anti-desmoglein 3 scFv antibody binding to human desmoglein 3 (DSG3)
Assay: blockers of pemphigus antibody–desmoglein 3 interaction – biochemical, DSG3-coupled beads, scFv-GFP, flow cytometry, Cherry Pick 1, dose response (AID 602251);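 as to binding response, lower = inhibition: 100% = DMSO vehicle binding and 0% = soluble DSG3 blocking control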
Settings: for binding response, lower = inhibition: at 66.1 µM (top of the series)

SMILES	binding response, lower = inhibition	EC50 [µM]
CCOc1ccc(S(=O)(=O)N2CCN(C(=O)c3ccccc3Cc3ccccc3)CC2)cc1	inactive	
CC(=O)c1c(C)n(-c2ccc(Cl)cc2)c2ccc(O)cc12	inactive	
O=C(Nc1ccc(Nc2ccccc2)cc1)c1ccc(Br)cc1	inactive	
O=[N+]([O-])c1ccc(NCCNc2ccc([N+](=O)[O-])cc2)cc1	inactive	
CCOc1ccc2nc(NC(=O)c3ccc(S(=O)(=O)N4CCOCC4)cc3)sc2c1	inactive	
CCCCN(C)CCNC(=O)c1cc(-c2cccnc2)nc2ccc(S(=O)(=O)N3CCC(C)CC3)cc12	inactive	
CCCCOC(=O)Nc1sc2nc(C)cc(C)c2c1-n1cccc1		41.9
COc1ccc(NC(=O)Cn2nnc(C(=O)NCc3ccccc3)c2N)cc1Cl	inactive	
CN(C(=O)COC(=O)c1ccc(-c2ccc(O)cc2)cc1)C1CCS(=O)(=O)C1 (stereo not given)	inactive	
Cc1ccc(O)c(NC(=O)CSc2ccc(Cl)cc2)c1	inactive	
Cn1c(SCC(=O)NC2CCCCC2)nnc1-c1cc2cc(Cl)ccc2o1		21.1
O=C1OC(COc2ccc(Br)cc2)CN1c1ccccc1 (stereo not given)	inactive	
COCCCNC(=O)c1c(N)n(-c2cccc(S(N)(=O)=O)c2)c2nc3ccccc3nc12	inactive	
COc1ccc(NC(=O)c2ccc3c(c2)C(=O)N(Cc2cccnc2)C3=O)c(OC)c1	inactive	
COc1ccc2c(c1)c(N=NC(N)=S)c(O)n2CC(=O)c1ccccc1	inactive	
Nc1cc(-c2ccc(Br)cc2)nn1S(=O)(=O)c1ccccc1	inactive	
CCOC(=O)Cc1csc(-n2sc3ccccc3c2=O)n1		15
CC(=O)Nc1cccc(NC(=O)CSc2ccc(C(F)(F)F)cc2[N+](=O)[O-])c1	inactive	
Nn1c(SCC(=O)Nc2cc(C(F)(F)F)ccc2Cl)nncc1=O		29.6
CCOc1ccc2c(ccc(/C=C/c3cc(C)c4cccnc4c3O)[n+]2C)c1		1.08
CCOC(=O)c1cn(-c2ccc([N+](=O)[O-])cc2)c2cc(Cl)c([N+](=O)[O-])cc2c1=O	inactive	
CCOC(=O)N1CCC(NC(=O)c2cc3c(-c4ccccc4F)nn(C)c3s2)CC1	inactive	
O=C(O)C1Nc2c(O)cc(Cl)c([N+](=O)[O-])c2C2C=CCC12 (stereo not given)		27.7

SMILES	binding response, lower = inhibition	EC50 [µM]
COCCCNC(=O)c1c(N)n(-c2ccc(S(N)(=O)=O)cc2)c2nc3ccccc3nc12		25.6
CN(C)c1nc(N)ncc1-c1ccc(Oc2ccccc2)cc1	inactive	
CCC(CC)C(=O)Nc1cccc(S(=O)(=O)c2cccc(NC(=O)C(CC)CC)c2)c1		55
O=C(Nc1cccc([N+](=O)[O-])c1)c1ccc(CSc2ccccc2)cc1	inactive	
COc1ccccc1CNC(=O)COC(=O)c1ccc(S(=O)(=O)N2CCCCC2)cc1	inactive	
COc1ccc(CCNC(=O)COc2ccc(-c3ccc(C)cc3)cc2)cc1OC	inactive	
O=C(Nc1ccc(F)cc1)Nc1ccc([N+](=O)[O-])cn1		21.5
Cc1ccc(NC(=O)CN2C(=O)N/C(=C/c3cccn3-c3ccc(C(=O)O)cc3)C2=O)cc1		48.4
Cc1c([N+](=O)[O-])cc(C(=O)Nc2ccc(NC(=O)c3ccco3)cc2)cc1[N+](=O)[O-]	inactive	
CCCCN1C=C(C(=O)OC)C(c2ccccc2C(F)(F)F)C(C(=O)OC)=C1	inactive	
CCOc1ccc(N2CSC(=S)N(c3ccc(OCC)cc3)C2)cc1	inactive	
Cc1nc2ccccc2nc1OCC(=O)Nc1ccc2ccccc2c1	inactive	
Cc1ccc(CSc2nnc(Nc3ccc(C)cc3)s2)cc1	inactive	
O=C(CSc1ccsc1[N+](=O)[O-])Nc1cc(F)ccc1F	inactive	
COc1ccc(-c2cc(=O)oc3cc(OCC(=O)Nc4ccccn4)ccc23)cc1	inactive	
CCc1nnc(NC(=O)CSc2ncnc3c2oc2ccccc23)s1	inactive	
CCOc1ccccc1NCc1cc(=O)oc2cc(C)c(O)cc12	inactive	
COc1ccc(N2CCN(C(=O)c3sc4nc(-c5ccc(F)cc5)cn4c3C)CC2)cc1	inactive	
Cn1c2ccccc2c(=O)c2c(=O)n(Cc3ccco3)c(COc3ccccc3)nc21	inactive	
O=C(Nc1cccc2ccccc12)N1CCN(c2ccccc2)CC1	inactive	
O=C(O)c1cccc(-n2cccc2/C=C2/NC(=O)N(c3ccc(Cl)cc3)C2=O)c1		11.7
Cc1ccc(C(C)C)c(OCC(=O)Nc2ccc(N3CCN(S(C)(=O)=O)CC3)cc2)c1		20.9
O=c1c2c([N+](=O)[O-])cc([N+](=O)[O-])cc2sn1Cc1ccccc1		9.8

SMILES	binding response, lower = inhibition	EC50 [µM]
O=C(CSc1nnc(Cc2ccccc2)o1)N1CCc2ccccc21	inactive	
COc1ccc(NC(=O)c2ccc3c(c2)C(=O)N(Cc2cccnc2)C3=O)cc1	inactive	
CCc1nnc(NC(=O)CSc2nncc(=O)n2N)s1		55
COc1ccccc1NS(=O)(=O)c1cccc(NC(=O)c2cc3ccccc3oc2=O)c1	inactive	
CN(C(=O)CSc1nc2cc([N+](=O)[O-])ccc2n1-c1ccc(F)cc1)C1CCS(=O)(=O)C1 (stereo not given)	inactive	
CCc1ccc(-c2cc(C(=O)Nc3ccc(S(=O)(=O)NC(C)=O)cc3)c3ccccc3n2)cc1	inactive	
Cc1nnc2ccc(-c3ccc(NS(=O)(=O)c4ccccc4)cc3)nn12	inactive	
O=C(O)c1cccc2c1NC(C(=O)O)C1CC(Sc3ccccc3[N+](=O)[O-])C(Cl)C21 (stereo not given)		29
O=C(Nc1ccc(N2CCOCC2)cc1)c1ccc2nc(-c3ccco3)c(-c3ccco3)nc2c1		25.4
O=C(c1cc2cc3ccc(Cl)cc3nc2o1)N1CCN(Cc2ccc3c(c2)OCO3)CC1	inactive	
CCOC(=O)c1cc(-c2ccc(/C=C3/C(=O)N(c4ccc(C(=O)O)cc4)N=C3C)o2)ccc1Cl	inactive	
COc1ccccc1NC(=O)Cn1nnc(-c2ccccc2NC(=O)c2cc3ccccc3oc2=O)n1		25.8
Cc1ccc(-c2nc3sc(C#N)c(N)n3c(=O)c2C#N)cc1	inactive	
O=C(Nc1ccc(N2CCN(C(=O)c3ccccc3)CC2)cc1)c1cc2ccccc2o1	inactive	
O=C(Nc1ccc(NS(=O)(=O)c2ccccc2)cc1)c1ccc(Cl)cc1	inactive	
CC1CCN(S(=O)(=O)c2ccc3c(c2)c(=O)c(C(=O)NCc2cccs2)cn3C)CC1		55.8
CCOC(=O)CN1C(=O)/C(=C/c2ccccc2Br)Oc2ccccc21	inactive	
C=CCNC(=O)c1c(N)n(-c2cccc(S(N)(=O)=O)c2)c2nc3ccccc3nc12		58.5
COc1ccc(NC(=O)c2ccc3c(c2)C(=O)N(Cc2ccncc2)C3=O)cc1S(N)(=O)=O	inactive	
CSc1ccccc1OCc1cc(C(=O)NCCC2=CCCCC2)no1	inactive	
COc1ccc(C(C(=O)NC2CCCCC2)N(CC2CCCO2)C(=O)C2COc3ccccc3O2)cc1OC (stereo not given)	inactive	
Nc1ccc2nc(-c3cccc(-c4nc5ccc(N)cc5[nH]4)c3)[nH]c2c1		65.2
COc1ccc(CNC(=O)c2ccc(-c3ccccc3)cc2)cc1OC	inactive	

SMILES	binding response, lower = inhibition	EC50 [µM]
O=C1NN(c2cccc(Br)c2)C(=O)/C1=C/c1ccc(-c2cc([N+](=O)[O-])ccc2O)o1	inactive	
O=C(Nc1ccc2oc(=O)ccc2c1)c1ccc(-c2ccccc2[N+](=O)[O-])o1	inactive	
CCCn1c(C)nc2c(c1=O)c1nc3ccccc3nc1n2-c1ccccc1	inactive	
CC(=O)c1ccc(NC(=O)CSc2ccsc2[N+](=O)[O-])cc1	inactive	
COc1ccc2cc(C#N)c(SCC(=O)N3CC(=O)Nc4ccccc43)nc2c1	inactive	
COCCn1c(=NC(=O)CCS(=O)(=O)c2ccccc2)sc2cc(C(=O)OC)ccc21		25.4
O=C1c2ccc(-c3ccc(F)cc3OCc3ccccc3)cc2S(=O)(=O)c2cccc(C(=O)N3CCN(c4ncc(Br)cn4)CC3)c21	inactive	
O=C(Nc1cc(Cl)ccc1Cl)c1ccc(OC(=O)c2ccco2)cc1	inactive	
O=C(NC1CCCC1)C(c1ccc(O)cc1)N(CC1CCCO1)C(=O)C1COc2ccccc2O1 (stereo not given)	inactive	
CCc1ccc(OCC(=O)Nc2ccc(N3CCN(C(=O)c4ccccc4)CC3)cc2)cc1	inactive	
Cc1c(OCC(=O)NCc2ccccn2)ccc2c(-c3ccccc3)cc(=O)oc12	inactive	
COc1ccc2cc(-c3cc(C(=O)OCC(=O)NC4CCS(=O)(=O)C4)c4ccccc4n3)ccc2c1 (stereo not given)		19.2
COc1ccc(-c2cn3c(C)c(C(=O)Nc4cccc(NC(C)=O)c4)sc3n2)cc1	inactive	
COc1ccc(NC(=O)c2cc(-c3ccco3)nc3ccccc23)cc1	inactive	
O=C(Nc1ccc(S(=O)(=O)NCc2ccccc2)cc1)C1CCCCC1	inactive	
NS(=O)(=O)c1ccc(-c2ccc(/C=C3\SC(=S)N(C4CCS(=O)(=O)C4)C3=O)o2)cc1 (stereo not given)	inactive	
CCOC(=O)C1=C(N)n2c(s/c(=C\c3cccnc3)c2=O)=C(C(=O)OC)C1c1cccnc1 (stereo not given)	inactive	
O=c1c2ccccc2sn1-c1nccs1		12.7
CCC(=C/c1sc2ccc3ccccc3c2[n+]1C)/C=C1\Sc2ccc3ccccc3c2N1C		25.9
O=C(COc1cccnc1[N+](=O)[O-])Nc1cc(S(=O)(=O)N2CCCCC2)ccc1Cl	inactive	
COc1cc(OC)cc(C(=O)OCc2cc3ccccc3[nH]c2=O)c1	inactive	
